Test results reported in ChEMBL document CHEMBL1201862, “PubChem BioAssay data set” (2004).
“And” between values parts separate entries of the source, which are not always exact repeats. Equal values may be shown once.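 Cells were grown in 96-well plates and exposed to each compound for 48 hours at five concentrations; endpoints were interpolated linearly between bracketing concentrations, or set to the highest concentration if not reached. Abbreviation: GI50, concentration required for 50% inhibition of growth.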 The source made the active and inactive calls. Cut-off read from the data, not from the text of the source: active = GI50 up to about 1.1 µM and inactive = higher.

Columns and labels:
Test in all cases: DTP human tumour cell line panel, 48 h
[1] = tested on: MOLT-4
[2] = tested on: KM12
[3] = tested on: SK-MEL-5
[4] = tested on: SF-539
[5] = tested on: PC-3
[6] = tested on: HL-60
[7] = tested on: SF-268
[8] = tested on: OVCAR-5
[9] = tested on: UACC-62
[10] = tested on: HOP-92
[11] = tested on: DU-145
[12] = tested on: UO-31
[13] = tested on: HCC 2998
[14] = tested on: CCRF-CEM
[15] = tested on: SNB-19
[16] = tested on: SR
[17] = tested on: HCT-116
[18] = tested on: A549
[19] = tested on: TK-10
[20] = tested on: HOP-62

Compound	GI50 [1]	GI50 [2]	GI50 [3]	GI50 [4]	GI50 [5]	GI50 [6]	GI50 [7]	GI50 [8]	GI50 [9]	GI50 [10]	GI50 [11]	GI50 [12]	GI50 [13]	GI50 [14]	GI50 [15]	GI50 [16]	GI50 [17]	GI50 [18]	GI50 [19]	GI50 [20]
O=C(/C=C/c1ccc(O)c(O)c1)OCCc1cccc2ccccc12	1.61 µM (inactive)	3.55 µM (inactive)	2.24 µM (inactive)	4.79 µM (inactive)	3.88 µM (inactive)	1.38 µM (inactive)	4.76 µM (inactive)	14.4 µM (inactive)	4.27 µM (inactive)	10.6 µM (inactive)	5.48 µM (inactive)	4.21 µM (inactive)	11.1 µM (inactive)	0.501 µM (active)	10.6 µM (inactive)	0.841 µM (active)	3.24 µM (inactive)	4.54 µM (inactive)	3.4 µM (inactive)	–
N#CC(NCCO)=C1C(=O)c2ccccc2C1=O	> 100 µM (inactive)	> 100 µM (inactive)	> 100 µM (inactive)	> 100 µM (inactive)	> 100 µM (inactive)	> 100 µM (inactive)	> 100 µM (inactive)	> 100 µM (inactive)	> 100 µM (inactive)	> 100 µM (inactive)	> 100 µM (inactive)	> 100 µM (inactive)	–	–	> 100 µM (inactive)	> 100 µM (inactive)	> 100 µM (inactive)	> 100 µM (inactive)	> 100 µM (inactive)	> 100 µM (inactive)
O=C(CC(O)(C(F)(F)F)C(F)(F)F)c1cccs1	> 10 µM (inactive)	> 10 µM (inactive)	> 10 µM (inactive)	> 10 µM (inactive)	> 10 µM (inactive)	> 10 µM (inactive)	> 10 µM (inactive)	–	> 10 µM (inactive)	> 10 µM (inactive)	> 10 µM (inactive)	–	> 10 µM (inactive)	> 10 µM (inactive)	> 10 µM (inactive)	> 10 µM (inactive)	> 10 µM (inactive)	> 10 µM (inactive)	> 10 µM (inactive)	> 10 µM (inactive)
C=C(CCOC)CCC1CCCCC(=C)[C@H]1O (some centres not stated)	> 100 µM (inactive)	> 100 µM (inactive)	> 100 µM (inactive)	–	> 100 µM (inactive)	> 100 µM (inactive)	> 100 µM (inactive)	> 100 µM (inactive)	> 100 µM (inactive)	> 100 µM (inactive)	> 100 µM (inactive)	> 100 µM (inactive)	–	> 100 µM (inactive)	> 100 µM (inactive)	> 100 µM (inactive)	> 100 µM (inactive)	> 100 µM (inactive)	> 100 µM (inactive)	> 100 µM (inactive)
COC(=O)C1OC(O[C@H]2CC[C@]3(C)[C@H]4CC=C5[C@@H]6CC(C)(C)CC[C@]6(C(=O)OC6OCC(O)C(O)C6OC6OC(C)C(OC7OCC(O)C(O)C7O)C(O)C6O)[C@H](O)C[C@@]5(C)[C@]4(C)CC[C@H]3C2(C)C)C(O)C(O)C1O (some centres not stated)	–	3.48 µM (inactive) and 3.61 µM (inactive)	6.61 µM (inactive) and 13.1 µM (inactive)	–	4.45 µM (inactive) and 4.68 µM (inactive)	2.63 µM (inactive) and 2.56 µM (inactive)	9.29 µM (inactive) and 9.2 µM (inactive)	4.93 µM (inactive) and 6.59 µM (inactive)	–	1.88 µM (inactive) and 2.09 µM (inactive)	9.73 µM (inactive) and 13.4 µM (inactive)	1.71 µM (inactive) and 2.04 µM (inactive)	2.82 µM (inactive) and 1.82 µM (inactive)	–	4.56 µM (inactive) and 7.24 µM (inactive)	3.14 µM (inactive) and 3.86 µM (inactive)	4.08 µM (inactive) and 4.86 µM (inactive)	3.9 µM (inactive) and 3.47 µM (inactive)	8.15 µM (inactive) and 9.68 µM (inactive)	8.85 µM (inactive) and 6.27 µM (inactive)
Cc1nc2ccc(Cl)cc2c2c1CCO2	45.2 µM (inactive)	> 100 µM (inactive)	68.5 µM (inactive)	46.5 µM (inactive)	88.1 µM (inactive)	41.5 µM (inactive)	68.9 µM (inactive)	–	71.9 µM (inactive)	80 µM (inactive)	86.5 µM (inactive)	37.1 µM (inactive)	> 100 µM (inactive)	57.8 µM (inactive)	60.4 µM (inactive)	> 100 µM (inactive)	97.5 µM (inactive)	63 µM (inactive)	64.7 µM (inactive)	> 100 µM (inactive)
O=c1[nH]c2nc3ccccc3c(=O)n2/c1=C/c1ccc(Cl)cc1	51.6 µM (inactive)	18.4 µM (inactive)	–	21.7 µM (inactive)	> 100 µM (inactive)	48.8 µM (inactive)	26.9 µM (inactive)	63.5 µM (inactive)	33.3 µM (inactive)	27.4 µM (inactive)	33.3 µM (inactive)	67.6 µM (inactive)	21.7 µM (inactive)	37 µM (inactive)	23.4 µM (inactive)	> 100 µM (inactive)	36 µM (inactive)	> 100 µM (inactive)	58.5 µM (inactive)	53.7 µM (inactive)
